{
  "source": "paper PMC8533089",
  "about": "“Characteristics of Neurokinin-3 Receptor and Its Binding Sites by Mutational Analysis” (Biology, 2021)",
  "key": {"11-KT plasma levels": {"system": "11-KT plasma levels", "assay": "14-day in vivo experiment: plasma 11-KT (ELISA)", "design": "species or system adult male tilapia (Oreochromis niloticus)", "conditions": "500 µg/kg BW IP every 48 h, 14 days; n = 6", "method": "(§1) Adult male tilapia (BW 87.29 ± 26.1 g; gonado-somatic index (GSI 0.21% ± 0.36%) were IP injected with SB-222200 (500 µg/kg BW in 25% DMSO) and saline with 25% DMSO as a control every 48 h during a 14-day period. Blood was sampled every 48 h. Milt volume was collected from 6 fish from each group 7 and 14 days after the first injection, generally according to [55].\n11-KT levels were determined by ELISA, according to [52], using acetylcholine-esterase as a label. The anti- 11-KT was donated by Dr. D.E. Kime (Sheffield, UK). All samples were analyzed in duplicate, and for each ELISA plate, a separate standard curve was run. The lower limits of detection were 0.93 for 11-KT. The intra- and inter-assay coefficients of variance were less than 7%. Steroid levels in the plasma, determined by ELISA, were validated by verifying that serial dilutions were parallel to the standard curve."}, "[1]": {"system": "testicular cell composition", "assay": "14-day in vivo experiment: testicular histology and cell composition", "design": "species or system adult male tilapia (Oreochromis niloticus)", "method": "as §1\nTestes were sampled for histology at 14 days, and testicular cell composition was analyzed. Testes were fixed for 24 h, after which a portion was removed (~5 mm in length) from the center of the larger right testicular lobe for histological processing. Samples were rinsed in distilled water, dehydrated in an alcohol series, cleared in xylene, embedded in paraffin, serially sectioned at 4 μm in the transverse plane, and stained with hematoxylin and eosin using standard histological techniques. Photomicrographs were then taken (4× objective) of 3 randomly chosen sections from each individual for analysis of testicular cell composition. Randomly generated points (n = 50) were overlaid on each photograph (CPCe software), and the cell type underneath each crosshair point was identified. A minimum of 50 points was necessary to adequately determine the percentage of cell types. Cell types were identified based on previous descriptions in this and other related teleost species reviewed in [57], and the following cells were quantified: spermatogonia, spermatids, and spermatozoa (mature sperm). Each cell type was then expressed as a percentage of the total, and averaged across the 3 sections to obtain a mean for each individual."}, "LH secretion": {"system": "LH secretion", "conditions": "OVX ewes, micro-implants in the ARC; cited from earlier work", "from_the_text": "(§2) The effect of NKB/NKF peptides on gonadotropin secretion in fish is already well established. The first indication that NKB is widely expressed in fish species and has a stimulatory reproductive effect was shown in zebrafish, goldfish, and tilapia. […] Osetanant re ..."}, "[2]": {"system": "Tac3R of the striped bass", "design": "method as in PMID 28330973", "conditions": "cited from earlier work", "from_the_text": "as §2"}},
  "data": [
    {"smiles": "CC[C@H](NC(=O)c1c(C)c(-c2ccccc2)nc2ccccc12)c1ccccc1", "note": "[SB-222200]", "values": [
      {"measurement": "11-KT plasma levels", "setting": "11-KT plasma levels", "value": "significantly delayed the rise of 11-KT levels in plasma"},
      {"measurement": "number of spermatozoa", "setting": "[1]; 500 µg/kg BW IP every 48 h, day 14", "value": "significantly reduced the number of spermatozoa"},
      {"measurement": "other cells, % of cells", "setting": "[1]; 500 µg/kg BW IP every 48 h, day 14, Figure 9E, *", "value": 48.38, "unit": "%"},
      {"measurement": "spermatid, % of cells", "setting": "[1]; 500 µg/kg BW IP every 48 h, day 14, control 23.2%, significant", "value": 10, "unit": "%"},
      {"measurement": "spermatozoa, % of cells", "setting": "[1]; 500 µg/kg BW IP every 48 h, day 14, control 23.78%, significant", "value": 6.63, "unit": "%"},
      {"measurement": "spermatogonia, % of cells", "setting": "[1]; 500 µg/kg BW IP every 48 h, day 14, control 32.87%", "value": 35, "unit": "%"},
      {"measurement": "spermatogonia, count", "setting": "[1]; day 14, Figure 9E", "value": 280},
      {"measurement": "other cells, count", "setting": "[1]; day 14, Figure 9E, *", "value": 387},
      {"measurement": "spermatid, count", "setting": "[1]; day 14, Figure 9E, *", "value": 80},
      {"measurement": "spermatozoa, count", "setting": "[1]; day 14, Figure 9E, *", "value": 53},
      {"measurement": "LH secretion", "setting": "LH secretion", "value": "disrupted LH secretion"},
      {"measurement": "antagonistic effect on the Tac3R of the striped bass", "setting": "[2]", "value": "no antagonistic effect"}
    ]}
  ]
}
